Results on one compound are retold here after PMC6014988, “Precision therapeutic targeting of human cancer cell motility” (Nature Communications, 2018).

Assay [1] has as its system human prostate cells (PC3, PC3-M, 1532NPTX, 1542NPTX, 1532CPTX, 1542CPTX). Nature of the assay: Cell invasion, panel of human prostate cells. In kind it is cell-based. The method, then:
Human prostate metastatic cells (PC3, PC3-M), and HPV-transformed normal (1532NPTX, 1542NPTX) and primary cancer (1532CPTX, 1542CPTX) cells, were treated with 10 µM genistein (G), KBU2046 (46), or vehicle (CO), and after 3 days, cell invasion was measured. Values are mean ± SEM of a single experiment in replicates of N = 4, with similar findings in multiple separate experiments (also N = 4). c Single-cell migration. Cell migration was measured after treatment for 3 days with 10 µM KBU2046 or vehicle (control). Values are mean ± SEM of a single experiment in replicates of N = 24, with similar findings in a separate experiment (also N = 24). *Denotes Student’s t-test P value <0.05, compared to controls. d Human cord blood hematopoietic stem cell colony formation assay. Values are the mean ± SD number of total, CFU-GM, CFU-GEMM, or BFU-E colonies at 14 days after treatment with KBU2046, from a single experiment in replicates of N = 2. e Induction of estrogen-responsive genes. Values are the mean ± SD of a single experiment, with similar results seen in a separate experiment, both in replicates of N = 2
Boyden chamber cell invasion assays were performed as previously described by us[30], using either denatured collagen (BD Biosciences) or type IV human collagen (BD Biosciences), with all experiments repeated, each in N = 4 replicates. […]

Another assay deals with PC3-luc cells. Nature of the assay: Intracardiac injection PC3-luc bone metastasis model. In kind it is in vivo, mouse. An excerpt: Fig. 3 KBU2046 inhibits bone destruction. a Treatment schema. Athymic mice were given intracardiac (IC) injections of PC3-luc cells on day 0 under ultrasound guidance, and underwent weekly IVIS imaging starting 7 days post injection. Cohorts of N = 20 control, N = 20 pre (treatment from 3 days prior to IC injection through end of the experiment), N = 10 Pre7Stop (treatment from 3 days prior to IC injection through 7 days post IC injection), and N = 10 post-treatment (treatment from 3 days post IC injection through end of the experiment) mice were dosed with 80 mg/kg KBU2046 daily by oral gavage and mock-treated with vehicle all other times. Whole-body (b) and mandible (c) flux are depicted, as determined from weekly IVIS imaging. d At week 4 post injection (i.e., at the end of the experiment), CT scans were performed on control, pre-, and post-treatment cohorts, and mandibular destruction quantified. e Representative images of pre and control mice are depicted. Arrows denote areas of bone destruction in controls, and corresponding areas in the pre mouse. Student’s t-test (b, c) and Fisher’s exact test (d) P values between the denoted cohorts are shown
Prostate cancer: intracardiac (IC) injection: IC injection of 4.0 × 10^5 PC3-Luc cells into male 6–8 week old athymic mice with IVIS imaging was performed as described, and was done so under ultrasound guidance (Supplementary Fig. 9). Mice were treated pre- and/or post-IC injection, as indicated. The pretreatment cohort emulates a metastasis naive model wherein cell motility is required in order for cells to invade into a distant organ, in this case, the jaw bone, for which this model is widely used. If KBU2046 were inhibiting cell motility, then in this model it would act to inhibit metastasis formation. In contrast, with the post-implantation cohort, cells have already completed invasion into the jaw bone, and distant metastasis have been established. […] IVIS imaging was performed 30 min after IC injection to confirm systemic distribution of cells, and thereafter weekly for 4 weeks starting 7 days post injection, allowing real-time tracking of metastasis development and growth. Computed tomograpgy (CT) (Inveon, Seimens) radiographic imaging was performed on some mice, as indicated, and resultant images analyzed in a blinded fashion using Inveon Research Workplace 4.2 visualization/analysis software and ImageJ. […] Experimental groups were randomly assigned to cages prior to the initiation of the study. CT images were analyzed in a blinded fashion to determine total bone loss using both the Invenon Research Workplace 4.2 visualization/analysis software and ImageJ. Specifically, to asses bone loss in an unbiased manner, an operator randomly loaded images into the system and blocked out identifying information prior to analysis by two separate blinded individuals.

A further assay has as its system CK2. Kind of assay: CK2 in vitro kinase assay. In kind it is biochemical. As to conditions: in the presence of CDC37. The text has this: CK2 activity. […] If they haven’t, I […]
affected by KBU2046. Specifically, because of CK2’s known link to S226 we likewise suspected that it could be involved in the mechanism of action. CK2 was indeed included in the LUMIER assay (see
Fig. 6 and Supplementary Fig. 19). We used the LUMIER assay to evaluate whether KBU2046 was altering the binding of client protein kinases to HSP90β/CDC37 heterocomplexes in intact cells, and thereby evaluated hundreds of client protein kinases. In this manner, we observed that KBU2046 did […]
known mechanistic link, we also utilized our in vitro system to interrogate purified CK2 and specifically […]
below, and if requested, we are happy to insert these otherwise negative findings into supplementary […]
CK2 in vitro kinase assay. As described in Figs 6f and g, the ability of recombinant CK2 to phosphorylate serine 226 on HSP90β, in the presence of CDC37, was evaluated +/- KBU2046 (46). Reaction time in minutes
(Mins) is denoted. KBU2046 had no effect upon serine 226 phosphorylation.
12. On top of the 8th page of the Results (where the authors discuss data in Fig. 5b-d and in […]
hydrogen bond formation with Glu33 of Hsp90beta to create formation of a new pocket into which the drug binds. […]
Additional comment 1. Figure 4c: if the data are expressed as %VC, should not the VC bar be set at […]

The mark [2] stands for this setting: pre-cohort, 80 mg/kg daily oral gavage.

Take `O=C1c2ccccc2OCC1c1ccc(F)cc1` (racemic) [KBU2046, (±)-3(4-fluorophenyl)chroman-4-one]: the cell invasion result in assay [1] (10 µM, 3 days) is on record as “inhibits cell invasion with efficacy equal-to-or-greater-than that of genistein”. The compound also came in with an effect upon invasion in assay [1] (after 3 days treatment of cells) of 50%. Further, the total body metastasis entry in the assay on PC3-luc cells (Pre7Stop cohort) is reported as “total body metastasis is significantly decreased”. In the assay with PC3-luc cells (post-cohort, treatment from 3 days post IC injection), the “metastasis to the total body and jaw” value is on record as “do not differ from control mice”. In the assay on PC3-luc cells (setting [2]), the “metastasis to the mandible” value was “decreased metastasis to the mandible” and the total metastatic burden entry is “significant decrease in total metastatic burden”. Besides, the “destruction of bone (mandible, CT)” value in the assay on PC3-luc cells (pre-cohort, week 4) is listed as “decreased destruction of bone”. The “CK2 phosphorylation of S226 on HSP90β” value in the assay with CK2 is on record as “does not inhibit”.
